# Laboratory results published in article PMC8041284, “Tunable Methacrylamides for Covalent Ligand Directed Release Chemistry” (Journal of the American Chemical Society, 2021).
# Target: BTK (Homo sapiens, UniProt Q06187)
# Experiment: biochemical
# Conditions: read-out: BTK inhibition (%), 0.75 uM BTK, […] probe 3l, 15 min preincubation
# Chain of BTK (Q06187 402-655 limits assumed): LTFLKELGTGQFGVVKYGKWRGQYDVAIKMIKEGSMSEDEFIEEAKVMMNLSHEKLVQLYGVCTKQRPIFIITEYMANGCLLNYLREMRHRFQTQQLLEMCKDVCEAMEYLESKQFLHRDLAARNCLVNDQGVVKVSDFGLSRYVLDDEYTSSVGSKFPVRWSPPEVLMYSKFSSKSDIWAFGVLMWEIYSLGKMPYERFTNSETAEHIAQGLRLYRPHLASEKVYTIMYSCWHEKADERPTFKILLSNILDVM
row,SMILES,inhibition at 10 µM [%]
1,O=C(Nc1ncc(SCCN2CCCC2)s1)[C@]1(c2ccc(S(=O)(=O)C3CC3)cc2)C[C@H]1C1CCCCC1 [PCM-0095206],-8.6
2,Nc1nc(N)c2nc(-c3cccc(O)c3)cnc2n1 [PCM-0095537],-35.7
3,CC1(C)CC(=O)c2c(C(F)(F)F)nn(-c3ccc(C(N)=O)c(NC4CCC(O)CC4)c3)c2C1 (centres unmarked) [PCM-0214567],-36.6
4,O=C(CCCN1CCC(O)(c2ccc(Cl)cc2)CC1)c1ccc(F)cc1 [PCM-0065124],-12.5
5,CCc1cncnc1N1CCN(Cc2nc3ccc(C(F)(F)F)cc3[nH]2)CC1 [PCM-0065022],-22.8
6,CC(C)CN(C[C@@H](O)[C@H](Cc1ccccc1)NC(=O)O[C@H]1CCOC1)S(=O)(=O)c1ccc(N)cc1 [PCM-0214738],-41.2
7,O=S(=O)(c1ccccc1)c1cnc2c(N3CCNCC3)cccc2c1 [PCM-0095346],3.1
8,CC(C)c1cc(-c2n[nH]c(=O)n2-c2ccc3c(ccn3C)c2)c(O)cc1O [PCM-0094991],12.4
9,CC(C)(O)[C@H]1CC[C@@](C)([C@H]2[C@@H](O)C[C@@]3(C)[C@@H]4C[C@H](O[C@@H]5O[C@H](CO)[C@@H](O)[C@H](O)[C@H]5O)[C@H]5C(C)(C)[C@@H](O[C@@H]6OC[C@@H](O)[C@H](O)[C@H]6O)CC[C@@]56C[C@@]46CC[C@]23C)O1 [PCM-0214684],5.4
10,Nc1ncnc2c1ncn2[C@@H]1O[C@H](CO)[C@@H](O)[C@H]1O [PCM-0090045],14
11,COc1cc(F)c(F)c(Nc2ccc(I)cc2F)c1NS(=O)(=O)C1(C[C@H](O)CO)CC1 [PCM-0214795],36.6
12,Cc1coc2c1C(=O)C(=O)c1c-2ccc2c(C)cccc12 [PCM-0094815],-3.9
13,Nc1nc(F)nc2c1ncn2[C@@H]1O[C@H](COP(=O)(O)O)[C@@H](O)[C@@H]1O [PCM-0090501],-8.6
14,C#C[C@]1(O)C=C[C@H]2[C@@H]3CCC4=CC(=O)CC[C@@H]4[C@H]3CC[C@@]21CC [PCM-0214616],3.1
15,COc1cc(NC(=O)c2ccc(-c3ccc(Cl)cc3)o2)cc(OC)c1 [PCM-0095366],56.8
16,O=C(Nc1c(Cl)cncc1Cl)c1ccc(OC(F)F)c(OCC2CC2)c1 [PCM-0095310],3.1
17,CC(C)(C(=O)O)c1ccc(C(O)CCCN2CCC(C(O)(c3ccccc3)c3ccccc3)CC2)cc1 (centres unmarked) [PCM-0065056],-10.3
18,O=C(Oc1cc(S(=O)(=O)c2ccccc2)ccc1[N+](=O)[O-])c1ccc(Cl)cc1 [PCM-0004196],-3.1
19,CC(C)=CCC[C@](C)(O)[C@H]1CC[C@]2(C)[C@@H]1[C@H](O)C[C@@H]1[C@@]3(C)CC[C@H](O)C(C)(C)[C@@H]3[C@@H](O[C@@H]3O[C@H](CO)[C@@H](O)[C@H](O)[C@H]3O)C[C@]12C [PCM-0216412],-10.8
20,Cc1onc(-c2ccccc2Cl)c1C(=O)N[C@@H]1C(=O)N2[C@@H]1SC(C)(C)[C@@H]2C(=O)O [PCM-0214695],-5.4
21,CC1(C)S[C@@H]2[C@H](NC(=O)C(C(=O)O)c3ccccc3)C(=O)N2[C@H]1C(=O)O (some centres unmarked) [PCM-0214723],10.1
22,Cc1coc2c1C(=O)C(=O)c1c-2ccc2c1CCCC2(C)C [PCM-0091329],16.3
23,CCCN(CCc1cccs1)[C@H]1CCc2c(O)cccc2C1 [PCM-0214799],14.8

# Other lines, results leading:
row,inhibition at 10 µM [%],SMILES
1,8.5,Nc1[nH]c(=O)ncc1Br [PCM-0216584]
2,-13.2,COC(=O)c1cc(OC)c(OC)c(OC)c1 [PCM-0215033]
3,9,C[C@H]1C[C@H]2[C@@H]3C[C@H](F)C4=CC(=O)C=C[C@]4(C)[C@@]3(F)[C@@H](O)C[C@]2(C)[C@@]1(O)C(=O)CO [PCM-0216237]
4,-17.9,C[N+](C)(C)CCOP(=O)(O)OP(=O)([O-])OC[C@H]1O[C@@H](n2ccc(N)nc2=O)[C@H](O)[C@@H]1O [PCM-0215877]
5,8.6,CC/C=C(\C(=O)N[C@@H]1C(=O)N2C(C(=O)OCOC(=O)C(C)(C)C)=C(COC(N)=O)CS[C@H]12)c1csc(N)n1 [PCM-0215081]
6,8.5,CC1=CCC2C(C1)C2(C)C (centres unmarked) [PCM-0216215]
7,5.4,CN(C)CCNC(=O)c1cccn2c(=O)c3cc4ccccc4cc3nc12 [PCM-0215411]
8,-1.5,COc1cc2c(cc1O)C[C@H]1c3cc(O)c(OC)cc3CC[N@@+]1(C)C2 [PCM-0216444]
9,-22.8,CCNC(=O)Nc1ccc(-c2nc(N3CCOC[C@@H]3C)c3c(n2)C(C)(C)S(=O)(=O)C3)cc1 [PCM-0215744]
10,-3.9,O=C(Oc1coc(CSc2ncccn2)cc1=O)c1ccc([N+](=O)[O-])cc1 [PCM-0216050]
11,43.2,N#Cc1ccc(-c2csc(NN=C3CCCC3)n2)cc1 [PCM-0215381]
12,70.3,CC1(C)C=Cc2c(ccc3c2OC[C@@H](c2ccc(O)cc2O)C3)O1 [PCM-0214974]
13,0.8,COc1ccc2cc1Oc1ccc(cc1)C[C@H]1c3cc(c(OC)cc3CCN1C)Oc1c(O)c(OC)cc3c1[C@@H](C2)N(C)CC3 [PCM-0214869]
14,-9.3,NC(=O)[C@@H]1CC[C@@H]2CN1C(=O)N2OS(=O)(=O)O [PCM-0214883]
15,-30.1,CC(C)CCNc1ncccc1C(=O)N1CCN(Cc2ccccc2)CC1 [PCM-0216256]
